From patent US5478848A (priority 1994, dated 1995)
Read-outs that look alike come from different tables or passages of the source.

Legend:
[1] = cited from earlier work
[2] = Inhibition of arthritis in the adjuvant-induced arthritis model in the Lewis rat; assay type: in vivo; conditions: for ED50: Rattus norvegicus, ip, 384 h; for Potency compared with indomethacin: i.p., adjuvant arthritis model
Excerpt: One similarity is the sensitivity to certain therapeutic treatments known to be active in humans. Also, therapeutic doses in humans are similar to therapeutic doses in the adjuvant arthritis model. Examples include NSAIDs, steroids, methotrexate, immunosuppressive drugs, such as cyclosporin, and cytotoxic drugs, such as cyclophosphamide and allopurinol. Jeurissen et. al., Arthritis and Rheumatism 34, 961-972 (1991); Yocum et. al., Annals of Internal Medicine 109, 863-869 (1988); Rau, et. al., Arthritis and Rheumatism 34, 1236-1244 (1991); Otterness and Bliven, supra; Ward, Am. J. Med. Medicine. pp. 3-9 (Jul. 13, 1984).
Lewis rats were given a 0.1 ml injection of adjuvant (1 mg/animal) into the base of the tail on day 0. Swelling of the feet and ankles was first noted on days 10-12. Maximal swelling was observed on days 16-20. The cell infiltrate of the chronic inflammatory responses is predominantly mononuclear (indicating the presence of cell-mediated immunity). Animals were observed daily, and ankle diameter was measured in millimeters on days 12 and 16 using a hand-held dial micrometer. The degree of swelling was assessed by calculating the mean difference between day 16 and day 0 ankle diameter. The results are expressed as the percent inhibition of the increase in ankle diameter on day 16. At this point the animals were sacrificed and tissues were taken for histologic evaluation.
Animals were administered test drugs, suspended in 5% polyethylene glycol and 0.5% Tween-80 in phosphate buffered saline (p.o. or i.p.) once each day from day 1 to day 16.

L-type Ca2+ channels = conditions: fibroblasts, macrophage/monocyte-like cells, Kuppfer cells; cited from earlier work
[3] = Inhibition of arthritis in the passive transfer model; assay type: in vivo, Lewis rat
Procedure: Another arthritis model often used is the passive transfer model. In the passive transfer model of adjuvant arthritis, spleen cells are harvested from animals 12-14 days after the animals have been injected with adjuvant, cultured 24 hours in vitro with the T-cell mitogen, concanavaLin A, and injected into naive rats. Within 14-20 days, arthritis develops in the paws. […] Otterness and Bliven, supra.
Nimodipine was also tested for its ability to inhibit arthritis in the passive-transfer model. Otterness and Bliven, supra.
Spleens were harvested from naive rats or from rats 9-12 days after sensitization with complete Freund's adjuvant. Single cell suspensions from spleen were prepared and cells were cultured for 24 hours with the T cell mitogen, concanavalin A. Spleen cells were harvested and injected, i.v., into naive animals. Ankle diameters were determined 14-18 days after injection of spleen cells from naive or sensitized animals into naive animals. Animals were administered nimodipine at 10 mg/kg/day, i.p., suspended in 5% polyethylene glycol and 0.5% Tween-80 in phosphate-buffered saline.

[4] = cited from earlier work; remark: listed apart in the source

Structure (SMILES): CN(Cc1cnc2nc(N)nc(N)c2n1)c1ccc(C(=O)N[C@@H](CCC(=O)O)C(=O)O)cc1 [methotrexate]
- Progressive dose-related hepatic changes ([1]; extended periods of treatment, correlates with ethanol ingestion): progressive dose-related hepatic changes
- Hepatic effects in patients treated for rheumatoid arthritis ([1]; human, in vivo): Hepatic fibrosis and cirrhosis have been reported

Structure (SMILES): CC1=C(CC(=O)O)c2cc(F)ccc2/C1=C\c1ccc([S+](C)[O-])cc1 (stereo not shown) [sulindac]
- Potency relative to indomethacin ([1]; human, in vivo): only half as potent as indomethacin
- Toxic side effects ([1]; human, in vivo): has toxic side effects of its own

Structure (SMILES): COC(=O)C1=C(C)NC(C)=C(C(=O)OCC(C)C)C1c1ccccc1[N+](=O)[O-] (stereo not shown) [nisoldipine]
- ED50 ([2]; i.p. dosage, once each day from day 1 to day 16, increase in ankle diameter on day 16, read-out: ED50): < 1 mg/kg
- Potency compared with indomethacin [2]: comparable in potency to indomethacin

Structure (SMILES): COC(=O)C1=C(C)NC(C)=C([N+](=O)[O-])C1c1ccccc1C(F)(F)F (stereo not shown) [Bay K 8644]
- Entry of Ca2+ into non-excitable cells (L-type Ca2+ channels): stimulated

Structure (SMILES): COc1ccc(CCN(C)CCCC(C#N)(c2ccc(OC)c(OC)c2)C(C)C)cc1OC (stereo not shown) [verapamil]
- ED50 [2]: 10 mg/kg

Structure (SMILES): COc1ccc2c(c1)c(CC(=O)O)c(C)n2C(=O)c1ccc(Cl)cc1 [indomethacin]
- ED50 [2]: 3 ± 1 mg/kg
- Patients experiencing untoward side effects ([1]; human, in vivo): 35-50%
- Patients forced to discontinue use ([1]; human, in vivo): about 20%
- Ulceration of the upper gastrointestinal tract / gastrointestinal bleeding ([1]; therapeutic doses used in rheumatoid arthritis): ulceration of the upper gastrointestinal tract leading to gastrointestinal bleeding is common

Structure (SMILES): COC(=O)C1=C(C)NC(C)=C(C(=O)OC)C1c1ccccc1[N+](=O)[O-] [nifedipine]
- ED50 [2]: 11 mg/kg

Structure (SMILES): COCCOC(=O)C1=C(C)NC(C)=C(C(=O)OC(C)C)C1c1cccc([N+](=O)[O-])c1 (stereo not shown) [nimodipine]
- ED50 [2]: 4 mg/kg
- Potency compared with indomethacin [2]: comparable in potency to indomethacin
- Inhibition of arthritis in the passive transfer model ([3]; 10 mg antagonist/kg body weight/day): completely inhibited arthritis
- Increase in paw diameter ([3]; sensitized T cells, 10 mg/kg/day, i.p., 14-18 days after injection of spleen cells): 0.2 ± 0.05 mm
- Gastrointestinal irritation ([4]; acute, sub-acute and chronic exposure, even at supra-therapeutic concentrations, NDA applications): have not revealed any gastrointestinal irritation
- Gastrointestinal toxicity ([4]; expected therapeutic dose in rheumatoid arthritis, prolonged periods of treatment): no gastrointestinal toxicity has been observed
